From patent US12208088B2 (Genentech, Inc., priority 2018, dated 2025)

Legend:
[1] = test system: primary human pan T cells; test: Human T-cell IL2 induction assay; assay type: cell-based; details: IL-2, anti-CD3/anti-CD28 stimulated T cells
Procedure: Example B3: Human T-Cell IL2 Induction Assay
Anti-CD3 and anti-CD28 activates TCR signaling in primary human pan T cells leading to IL-2 promoter induction. Secreted IL-2 in cell culture supernatant is detected by electrochemiluminescence using a capture antibody against IL-2 and an anti-IL-2 antibody labeled with SULFO-tag.
See www.mesoscale.com for additional electrochemiluminescence technology information.
Incubate primary human pan T cells with varying concentrations of test compounds for 30 minutes in a humidified incubator at 37° C. and 5% CO2. Transfer cells to a plate pre-coated with a fixed concentration of anti-human CD3 (determined separately for each donor lot) and add soluble anti-human CD28 (final concentration=1 μg/ml). Stimulate cells in a humidified incubator at 37° C. and 5% CO2 for 4 hours. Transfer 25 μl of supernatant to a MSD single spot plate pre-coated with an anti-human IL-2 antibody. Incubate MSD plate overnight at 4° C. with gentle shaking. Wash MSD plate 4× with wash buffer. Add SULFO-tagged detection antibody at a 1:50 dilution and incubate at room temperature shaking for 2 hours. Wash MSD plate 4× with wash buffer and add […] 2×MSD read buffer. Read on an MSD instrument. Normalize data to stimulated/untreated controls to calculate % activity at each concentration of compound.
• Frozen Primary Human Pan-T Cells (StemCell Technologies #70024) • anti-human CD3 (OKT3 clone) (eBioscience #16-0037-81) • anti-human CD28 (CD28.2 clone) (BD #555725) • 96-well Human IL-2 tissue culture kit (MSD #K151AHB-4) Instrumentation: • Biomek FX for liquid handling (Beckman Coulter) • MSD SECTOR S 600 (Meso Scale Discovery)
Exemplary compounds of Formula (I) were tested in the human T-cell IL-2 induction assays. The % increase measured for IL-2 in cells treated by the test compounds relative to untreated cells are provided in Table B2 for certain compounds.

HPK1 = HPK1 (Homo sapiens (Human), UniProt Q92918); test: HPK1 Lantha binding assay ("Lanth"); details: binding assays; Morrison Ki fit
HPK1, sequence (Q92918 1-346 limits assumed): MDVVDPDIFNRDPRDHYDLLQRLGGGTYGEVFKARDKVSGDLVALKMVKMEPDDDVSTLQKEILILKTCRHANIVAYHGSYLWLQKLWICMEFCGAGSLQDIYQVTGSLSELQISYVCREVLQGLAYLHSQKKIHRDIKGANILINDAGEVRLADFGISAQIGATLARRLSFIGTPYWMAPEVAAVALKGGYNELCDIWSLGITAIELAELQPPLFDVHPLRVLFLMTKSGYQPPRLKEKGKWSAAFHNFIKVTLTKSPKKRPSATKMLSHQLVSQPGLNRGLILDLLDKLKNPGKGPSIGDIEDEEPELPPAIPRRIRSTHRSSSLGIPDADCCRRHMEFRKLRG
Procedure, shortened: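 TR-FRET binding competition using 2 nM HPK1, 2 nM Eu-anti-GST antibody and 15 nM Tracer222 at 23 °C. Compound was incubated 1 h with enzyme and antibody, then 1 h after tracer addition, with an 11-point 5-fold dilution series. Ki obtained from a Morrison fit that corrects for tracer concentration and Kd.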

Compound	Ki (HPK1)	further results
Cc1c(CC#N)ccnc1-c1cc(N)cc(-c2cnc3c(c2Cl)[C@@]2(CC[C@@](C)(C#N)C2)CN3)c1 (stereo in doubt) [Compound 274b, (1S,3R)-5′-(3-Amino-5-(4-(cyanomethyl)-3-methylpyridin-2-yl)phenyl)-4′-chloro-3-methyl-1′,2′-dihydrospiro[cyclopentane-1,3′-pyrrolo[2,3-b]pyridine]-3-carbonitrile]	–	% IL relative to untreated cells ([1]; assayed concentration 0.926 μM): 564%
CC[C@H]1C[C@@]12CNc1ncc(-c3ccc(N)c(C(=O)N(C)C)c3F)cc12 [Compound 243a, 6-Amino-3-((1R,2S)-2-ethyl-1′,2′-dihydrospiro[cyclopropane-1,3′-pyrrolo[2,3-b]pyridin]-5′-yl)-2-fluoro-N,N-dimethylbenzamide]	–	% IL relative to untreated cells ([1]; assayed concentration 2.8 μM): 111%
CN(C)C(=O)c1c(N)ccc(-c2cnc3c(c2Cl)[C@]2(CC[C@](C)(C#N)CC2)CN3)c1F [Compound 250a, 6-Amino-3-((1s,4s)-4′-chloro-4-cyano-4-methyl-1′,2′-dihydrospiro[cyclohexane-1,3′-pyrrolo[2,3-b]pyridin]-5′-yl)-2-fluoro-N,N-dimethylbenzamide]	8.49 nM	% IL relative to untreated cells ([1]; assayed concentration 25 μM): 504%
CN(C)C(=O)c1c(N)ccc(-c2cnc3c(c2Cl)[C@]2(CC[C@@H](CO)C2)CN3)c1F [Compound 259c, 6-Amino-3-((1R,3R)-4′-chloro-3-(hydroxymethyl)-1′,2′-dihydrospiro[cyclopentane-1,3′-pyrrolo[2,3-b]pyridin]-5′-yl)-2-fluoro-N,N-dimethylbenzamide]	3 nM	% IL relative to untreated cells ([1]; assayed concentration 8.3 μM): 604%
Cc1c(CC#N)ccnc1-c1cccc(-c2cnc3c(c2Cl)[C@@]2(CC[C@@](C)(C(N)=O)C2)CN3)c1F [Compound 267b, (1S,3R)-4′-Chloro-5′-(3-(4-(cyanomethyl)-3-methylpyridin-2-yl)-2-fluorophenyl)-3-methyl-1′,2′-dihydrospiro[cyclopentane-1,3′-pyrrolo[2,3-b]pyridine]-3-carboxamide]	–	% IL relative to untreated cells ([1]; assayed concentration 0.926 μM): 298%
CN(C)C(=O)c1ccc2[nH]cc(-c3cnc4c(c3)C3(CC3)CN4)c2c1 [Compound 339, 3-(1′,2′-Dihydrospiro[cyclopropane-1,3′-pyrrolo[2,3-b]pyridin]-5′-yl)-N,N-dimethyl-1H-indole-5-carboxamide]	373 nM	–
CN(c1cc(C#N)cc2c(-c3cnc4c(c3)C3(CC3)CN4)c[nH]c12)S(C)(=O)=O [Compound 340, N-(5-Cyano-3-(1′,2′-dihydrospiro[cyclopropane-1,3′-pyrrolo[2,3-b]pyridin]-5′-yl)-1H-indol-7-yl)-N-methylmethanesulfonamide]	14.8 nM	–
CN(c1cc(C#N)cc2c(-c3cnc4c(c3)C3(CC3)CN4)cn(C)c12)S(C)(=O)=O [Compound 341, N-(5-Cyano-3-(1′,2′-dihydrospiro[cyclopropane-1,3′-pyrrolo[2,3-b]pyridin]-5′-yl)-1-methyl-1H-indol-7-yl)-N-methylmethanesulfonamide]	12.4 nM	–
N#CCc1ccc2[nH]cc(-c3cnc4c(c3)C3(CC3)CN4)c2c1 [Compound 342, 2-(3-(1′,2′-Dihydrospiro[cyclopropane-1,3′-pyrrolo[2,3-b]pyridin]-5′-yl)-1H-indol-5-yl)acetonitrile]	73.4 nM	–
CN(c1ccc2c(-c3cnc4c(c3)C3(CC3)CN4)c[nH]c2c1)c1cnn(C)c1 [Compound 343, 3-(1′,2′-Dihydrospiro[cyclopropane-1,3′-pyrrolo[2,3-b]pyridin]-5′-yl)-N-methyl-N-(1-methyl-1H-pyrazol-4-yl)-1H-indol-6-amine]	74 nM	–
N#Cc1ccc2ccn(-c3cnc4c(c3)C3(CC3)CN4)c2c1 [Compound 344, 1-(1′,2′-Dihydrospiro[cyclopropane-1,3′-pyrrolo[2,3-b]pyridin]-5′-yl)-1H-indole-6-carbonitrile]	590 nM	–
Cn1cc(Nc2ccc3c(-c4cnc5c(c4)C4(CC4)CN5)c[nH]c3c2)cn1 [Compound 345, 3-(1′,2′-Dihydrospiro[cyclopropane-1,3′-pyrrolo[2,3-b]pyridin]-5′-yl)-N-(1-methyl-1H-pyrazol-4-yl)-1H-indol-6-amine]	94 nM	–
